Molecules are shown by their SMILES.

In one assay the target is T1, BMP2KA (Homo sapiens, UniProt Q9NSY1).
T1 construct: purchased in-house DSF kinase panel (SGC-style construct names; the trailing letter is the construct ID)
Description: DSF Tm panel. The assay is classed as binding. The following applies: 10 μM compound.

The next assay concerns the target T2, STK4 (STK4A) (Homo sapiens, UniProt Q13043).
T2 construct: purchased in-house DSF kinase panel (SGC-style construct names; the trailing letter is the construct ID)
T2 sequence (Q13043 1-311): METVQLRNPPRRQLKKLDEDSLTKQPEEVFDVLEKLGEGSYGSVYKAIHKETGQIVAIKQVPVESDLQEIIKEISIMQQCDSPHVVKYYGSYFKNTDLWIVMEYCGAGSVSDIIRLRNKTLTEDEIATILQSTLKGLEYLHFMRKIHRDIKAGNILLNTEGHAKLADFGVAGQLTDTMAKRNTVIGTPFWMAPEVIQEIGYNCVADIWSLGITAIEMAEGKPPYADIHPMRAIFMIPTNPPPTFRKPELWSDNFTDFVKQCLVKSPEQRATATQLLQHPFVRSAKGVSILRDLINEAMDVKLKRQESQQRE
Kind of assay: DSF Tm panel. The assay is classed as binding. The note with it: 10 μM compound.

Another assay concerns the target T3, FGFR2A (Homo sapiens, UniProt P21802).
T3 construct: purchased in-house DSF kinase panel (SGC-style construct names; the trailing letter is the construct ID)
Kind of assay: DSF Tm panel. The assay is classed as binding. The following applies: 10 μM compound.

A further assay has as its target T4, DYRK1AA (Homo sapiens, UniProt Q13627).
T4 construct: purchased in-house DSF kinase panel (SGC-style construct names; the trailing letter is the construct ID)
Description: DSF Tm panel. The assay is classed as binding. The following applies: 10 μM compound.

The target in the next assay is T5, DAPK3 (DAPK3A) (Homo sapiens, UniProt O43293).
T5 construct: purchased in-house DSF kinase panel (SGC-style construct names; the trailing letter is the construct ID)
Kind of assay: DSF Tm panel. The assay is classed as binding. The following applies: 10 μM compound.

In a further assay the target is T6, FESA (Homo sapiens, UniProt P07332).
T6 construct: purchased in-house DSF kinase panel (SGC-style construct names; the trailing letter is the construct ID)
Description: DSF Tm panel. The assay is classed as binding. The note with it: 10 μM compound.

In the next assay the target is T7, MAP3K5A (Homo sapiens, UniProt Q99683).
T7 construct: purchased in-house DSF kinase panel (SGC-style construct names; the trailing letter is the construct ID)
Kind of assay: DSF Tm panel. The note with it: 10 μM compound. The assay is classed as binding.

A further assay deals with T8, MARK4A (Homo sapiens, UniProt Q96L34).
T8 construct: purchased in-house DSF kinase panel (SGC-style construct names; the trailing letter is the construct ID)
Description: DSF Tm panel. The assay is classed as binding. The note with it: 10 μM compound.

For another assay, the system named is RPS6KA1A. Description: DSF Tm panel. The assay is classed as binding. The following applies: 10 μM compound.
The target of another assay is T9, PIM1 (PIM1A) (Homo sapiens, UniProt P11309).
T9 construct: purchased in-house DSF kinase panel (SGC-style construct names; the trailing letter is the construct ID)
Kind of assay: DSF Tm panel. The assay is classed as binding. The following applies: 10 μM compound.

In the next assay the target is T10, DCAMKL1A (Homo sapiens, UniProt O15075).
T10 construct: purchased in-house DSF kinase panel (SGC-style construct names; the trailing letter is the construct ID)
T10 sequence (O15075 372-649): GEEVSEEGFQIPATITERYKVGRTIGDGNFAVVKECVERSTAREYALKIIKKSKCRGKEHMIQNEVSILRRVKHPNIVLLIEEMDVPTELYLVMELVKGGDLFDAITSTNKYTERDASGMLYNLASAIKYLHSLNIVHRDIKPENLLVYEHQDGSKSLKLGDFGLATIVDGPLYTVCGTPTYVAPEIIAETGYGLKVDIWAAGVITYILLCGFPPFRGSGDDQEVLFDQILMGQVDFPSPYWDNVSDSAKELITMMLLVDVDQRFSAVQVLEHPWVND
Description: DSF Tm panel. The assay is classed as binding. The following applies: 10 μM compound.

The next assay concerns the target T11, EPHA2 (EPHA2A) (Homo sapiens, UniProt P29317).
T11 construct: purchased in-house DSF kinase panel (SGC-style construct names; the trailing letter is the construct ID)
T11 sequence (P29317 596-900): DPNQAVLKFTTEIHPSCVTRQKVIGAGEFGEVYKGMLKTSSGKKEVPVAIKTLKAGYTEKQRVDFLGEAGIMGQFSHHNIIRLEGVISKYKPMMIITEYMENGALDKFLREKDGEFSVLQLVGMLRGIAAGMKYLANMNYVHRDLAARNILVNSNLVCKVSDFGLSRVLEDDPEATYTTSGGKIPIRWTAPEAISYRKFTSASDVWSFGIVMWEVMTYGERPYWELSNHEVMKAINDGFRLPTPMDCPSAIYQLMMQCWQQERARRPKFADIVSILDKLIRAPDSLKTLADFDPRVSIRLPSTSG
Kind of assay: DSF Tm panel. The note with it: 10 μM compound. The assay is classed as binding.

The next assay addresses T12, MARK3A (Homo sapiens, UniProt P27448).
T12 construct: purchased in-house DSF kinase panel (SGC-style construct names; the trailing letter is the construct ID)
Description: DSF Tm panel. The assay is classed as binding. The following applies: 10 μM compound.

Another assay has as its target T13, CAMK2DA (Homo sapiens, UniProt Q13557).
T13 construct: purchased in-house DSF kinase panel (SGC-style construct names; the trailing letter is the construct ID)
Description: DSF Tm panel. The following applies: 10 μM compound. The assay is classed as binding.

Another assay has as its target T14, SRPK1A (Homo sapiens, UniProt Q96SB4).
T14 construct: purchased in-house DSF kinase panel (SGC-style construct names; the trailing letter is the construct ID)
Kind of assay: DSF Tm panel. The assay is classed as binding. The note with it: 10 μM compound.

A further assay has as its target T15, MAPK1A (Homo sapiens, UniProt P28482).
T15 construct: purchased in-house DSF kinase panel (SGC-style construct names; the trailing letter is the construct ID)
Kind of assay: DSF Tm panel. The assay is classed as binding. The note with it: 10 μM compound.

Another assay deals with T16, CDKL1A (Homo sapiens, UniProt Q00532).
T16 construct: purchased in-house DSF kinase panel (SGC-style construct names; the trailing letter is the construct ID)
Kind of assay: DSF Tm panel. The note with it: 10 μM compound. The assay is classed as binding.

The subject of a further assay is CDC42BPAA. Kind of assay: DSF Tm panel. The assay is classed as binding. The following applies: 10 μM compound.
The target of another assay is T17, MAPK10A (Homo sapiens, UniProt P53779).
T17 construct: purchased in-house DSF kinase panel (SGC-style construct names; the trailing letter is the construct ID)
Description: DSF Tm panel. The assay is classed as binding. The following applies: 10 μM compound.

In the next assay the target is T18, VRK1A (Homo sapiens, UniProt Q99986).
T18 construct: purchased in-house DSF kinase panel (SGC-style construct names; the trailing letter is the construct ID)
T18 sequence (Q99986 1-396): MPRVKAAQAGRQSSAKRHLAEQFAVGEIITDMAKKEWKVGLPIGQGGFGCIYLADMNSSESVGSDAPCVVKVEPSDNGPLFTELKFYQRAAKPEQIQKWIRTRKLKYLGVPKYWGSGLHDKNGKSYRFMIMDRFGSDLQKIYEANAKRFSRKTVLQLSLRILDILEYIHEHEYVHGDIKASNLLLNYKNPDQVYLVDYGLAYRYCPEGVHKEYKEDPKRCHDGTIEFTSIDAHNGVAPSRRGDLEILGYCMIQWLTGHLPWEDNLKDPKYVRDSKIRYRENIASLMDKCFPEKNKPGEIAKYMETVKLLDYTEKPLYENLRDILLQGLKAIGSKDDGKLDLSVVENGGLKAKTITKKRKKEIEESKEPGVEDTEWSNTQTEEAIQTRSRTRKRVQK
Description: DSF Tm panel. The assay is classed as binding. The note with it: 10 μM compound.

In another assay the target is T19, MAPK14A (Homo sapiens, UniProt Q16539).
T19 construct: purchased in-house DSF kinase panel (SGC-style construct names; the trailing letter is the construct ID)
Description: DSF Tm panel. The note with it: 10 μM compound. The assay is classed as binding.

For the next assay, the target named is T20, STK10 (Homo sapiens, UniProt O94804).
T20 construct: purchased in-house DSF kinase panel (SGC-style construct names; the trailing letter is the construct ID)
Description: PhosphoSens in vitro activity assay. The assay is classed as biochemical. The note with it: ATP 160 μM.

Assay [1] addresses T21, SLK (Homo sapiens, UniProt Q9H2G2). Kind of assay: DSF Tm panel. The assay is classed as binding. Further details: purchased in-house DSF kinase panel (SGC-style construct names; the trailing letter is the construct ID). The following applies: 10 μM compound.
In assay [2] the target is T21, SLK. Description: NanoBRET target engagement assay. The assay is classed as cell-based. Further details: has a greater impact on the full-length protein than on the kinase domains; host or cells: HEK293T (ATCC CRL-3216). The note with it: HEK293T cells. Background: BRET reads energy transfer from a luciferase to a nearby fluorophore.

T15 sequence (P28482 whole entry): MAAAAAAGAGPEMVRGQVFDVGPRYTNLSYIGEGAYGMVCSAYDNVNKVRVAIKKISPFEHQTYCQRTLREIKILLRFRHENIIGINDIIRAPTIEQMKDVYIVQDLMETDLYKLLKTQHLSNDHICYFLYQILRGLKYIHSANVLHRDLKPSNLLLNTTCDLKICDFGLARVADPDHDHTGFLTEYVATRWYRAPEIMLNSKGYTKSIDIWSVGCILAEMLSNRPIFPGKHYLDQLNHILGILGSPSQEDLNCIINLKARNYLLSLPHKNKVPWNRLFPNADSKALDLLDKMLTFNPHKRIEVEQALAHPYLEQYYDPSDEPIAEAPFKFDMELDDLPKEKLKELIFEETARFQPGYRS
T20 sequence (O94804 18-317 limits assumed): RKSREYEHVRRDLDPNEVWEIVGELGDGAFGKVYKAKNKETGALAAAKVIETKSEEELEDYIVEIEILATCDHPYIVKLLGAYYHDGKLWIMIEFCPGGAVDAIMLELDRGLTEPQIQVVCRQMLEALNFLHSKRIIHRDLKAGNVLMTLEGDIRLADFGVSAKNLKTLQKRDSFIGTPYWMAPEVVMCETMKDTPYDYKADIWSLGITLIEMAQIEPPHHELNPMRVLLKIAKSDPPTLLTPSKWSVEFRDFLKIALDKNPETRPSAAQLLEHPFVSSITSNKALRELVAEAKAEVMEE
T8 sequence (Q96L34 59-310): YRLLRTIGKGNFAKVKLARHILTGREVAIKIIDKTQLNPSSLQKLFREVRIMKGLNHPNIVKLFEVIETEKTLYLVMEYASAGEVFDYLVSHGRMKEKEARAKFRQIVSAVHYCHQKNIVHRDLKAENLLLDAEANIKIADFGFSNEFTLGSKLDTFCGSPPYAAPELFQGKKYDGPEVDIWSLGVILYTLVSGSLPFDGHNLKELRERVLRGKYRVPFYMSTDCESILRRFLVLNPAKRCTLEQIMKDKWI
T16 sequence (Q00532 1-303): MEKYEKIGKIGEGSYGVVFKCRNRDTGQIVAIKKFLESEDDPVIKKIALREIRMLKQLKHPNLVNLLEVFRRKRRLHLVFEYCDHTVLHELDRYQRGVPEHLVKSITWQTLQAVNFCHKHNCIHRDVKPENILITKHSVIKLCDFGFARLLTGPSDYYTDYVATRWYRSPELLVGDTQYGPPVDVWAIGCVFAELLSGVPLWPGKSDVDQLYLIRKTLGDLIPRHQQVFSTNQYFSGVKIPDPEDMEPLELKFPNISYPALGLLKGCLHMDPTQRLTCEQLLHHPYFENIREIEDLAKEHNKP
T7 sequence (Q99683 659-951): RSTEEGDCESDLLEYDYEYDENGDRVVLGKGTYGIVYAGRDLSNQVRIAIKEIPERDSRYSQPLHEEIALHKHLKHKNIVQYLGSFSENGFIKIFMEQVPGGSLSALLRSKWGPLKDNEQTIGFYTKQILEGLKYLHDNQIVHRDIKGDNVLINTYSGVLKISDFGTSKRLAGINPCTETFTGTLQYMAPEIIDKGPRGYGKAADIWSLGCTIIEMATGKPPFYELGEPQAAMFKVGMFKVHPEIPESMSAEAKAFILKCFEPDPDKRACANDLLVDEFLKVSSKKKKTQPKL
T6 sequence (P07332 whole entry): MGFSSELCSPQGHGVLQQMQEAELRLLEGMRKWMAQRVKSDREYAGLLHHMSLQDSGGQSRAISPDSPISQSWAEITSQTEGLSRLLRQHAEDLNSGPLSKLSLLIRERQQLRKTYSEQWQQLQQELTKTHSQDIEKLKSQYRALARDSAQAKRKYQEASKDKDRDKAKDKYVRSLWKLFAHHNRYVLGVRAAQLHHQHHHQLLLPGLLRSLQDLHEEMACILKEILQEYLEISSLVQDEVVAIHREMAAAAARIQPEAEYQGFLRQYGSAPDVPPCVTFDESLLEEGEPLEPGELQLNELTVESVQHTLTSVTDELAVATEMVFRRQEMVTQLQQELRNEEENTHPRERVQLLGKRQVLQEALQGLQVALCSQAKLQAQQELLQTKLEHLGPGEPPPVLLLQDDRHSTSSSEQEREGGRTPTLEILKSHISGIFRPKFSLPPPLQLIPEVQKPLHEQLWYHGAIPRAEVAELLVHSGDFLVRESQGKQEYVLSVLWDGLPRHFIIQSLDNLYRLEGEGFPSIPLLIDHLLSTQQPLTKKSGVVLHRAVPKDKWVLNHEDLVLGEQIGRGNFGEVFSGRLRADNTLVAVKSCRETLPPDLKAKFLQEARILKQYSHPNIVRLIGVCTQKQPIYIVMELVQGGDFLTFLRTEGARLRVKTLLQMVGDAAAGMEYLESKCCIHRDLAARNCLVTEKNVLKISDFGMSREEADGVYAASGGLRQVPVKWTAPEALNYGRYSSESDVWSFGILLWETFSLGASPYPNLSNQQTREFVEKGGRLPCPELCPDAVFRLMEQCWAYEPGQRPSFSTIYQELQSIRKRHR
T14 sequence (Q96SB4 80-653): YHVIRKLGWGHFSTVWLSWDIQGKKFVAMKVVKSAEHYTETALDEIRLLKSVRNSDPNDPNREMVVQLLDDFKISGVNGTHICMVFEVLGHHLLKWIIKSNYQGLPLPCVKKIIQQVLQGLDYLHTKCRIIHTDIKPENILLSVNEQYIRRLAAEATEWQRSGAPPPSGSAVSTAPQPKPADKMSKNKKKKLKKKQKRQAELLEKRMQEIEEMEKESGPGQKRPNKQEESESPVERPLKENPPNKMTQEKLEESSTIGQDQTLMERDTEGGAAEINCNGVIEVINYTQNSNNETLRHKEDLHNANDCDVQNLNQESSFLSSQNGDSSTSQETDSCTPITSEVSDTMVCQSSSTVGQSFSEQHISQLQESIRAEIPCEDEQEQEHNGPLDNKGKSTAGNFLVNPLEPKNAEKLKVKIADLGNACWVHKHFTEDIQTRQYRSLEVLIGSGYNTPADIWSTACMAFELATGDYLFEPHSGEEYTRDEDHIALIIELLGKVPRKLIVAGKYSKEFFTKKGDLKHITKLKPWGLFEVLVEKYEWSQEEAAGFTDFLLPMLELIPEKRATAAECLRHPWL
T19 sequence (Q16539 whole entry): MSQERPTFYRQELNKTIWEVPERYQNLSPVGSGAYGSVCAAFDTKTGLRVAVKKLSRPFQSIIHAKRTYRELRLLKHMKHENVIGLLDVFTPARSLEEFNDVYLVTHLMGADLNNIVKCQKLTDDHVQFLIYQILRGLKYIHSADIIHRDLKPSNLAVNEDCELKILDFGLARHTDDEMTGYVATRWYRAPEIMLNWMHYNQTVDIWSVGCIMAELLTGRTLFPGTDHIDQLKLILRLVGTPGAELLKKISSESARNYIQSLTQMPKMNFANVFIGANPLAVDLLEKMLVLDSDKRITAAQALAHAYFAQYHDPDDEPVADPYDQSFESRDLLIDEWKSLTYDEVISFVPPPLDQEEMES
T13 sequence (Q13557 11-309): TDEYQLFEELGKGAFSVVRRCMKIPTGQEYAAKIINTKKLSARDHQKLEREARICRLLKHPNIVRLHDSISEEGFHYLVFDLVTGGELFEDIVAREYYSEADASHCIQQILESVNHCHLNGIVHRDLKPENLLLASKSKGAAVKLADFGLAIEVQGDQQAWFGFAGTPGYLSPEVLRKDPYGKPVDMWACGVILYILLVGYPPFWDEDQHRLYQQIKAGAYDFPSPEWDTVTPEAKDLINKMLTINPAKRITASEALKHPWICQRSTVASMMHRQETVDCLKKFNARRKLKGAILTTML
T9 sequence (P11309 whole entry): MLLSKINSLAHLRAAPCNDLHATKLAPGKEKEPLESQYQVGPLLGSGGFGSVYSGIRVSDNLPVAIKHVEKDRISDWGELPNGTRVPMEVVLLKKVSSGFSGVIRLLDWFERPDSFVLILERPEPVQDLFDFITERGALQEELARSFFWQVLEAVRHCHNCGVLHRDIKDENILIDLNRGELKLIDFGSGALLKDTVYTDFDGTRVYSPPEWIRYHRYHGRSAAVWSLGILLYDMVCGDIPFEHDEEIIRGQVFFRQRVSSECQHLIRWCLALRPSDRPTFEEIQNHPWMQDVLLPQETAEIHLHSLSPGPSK
T5 sequence (O43293 whole entry): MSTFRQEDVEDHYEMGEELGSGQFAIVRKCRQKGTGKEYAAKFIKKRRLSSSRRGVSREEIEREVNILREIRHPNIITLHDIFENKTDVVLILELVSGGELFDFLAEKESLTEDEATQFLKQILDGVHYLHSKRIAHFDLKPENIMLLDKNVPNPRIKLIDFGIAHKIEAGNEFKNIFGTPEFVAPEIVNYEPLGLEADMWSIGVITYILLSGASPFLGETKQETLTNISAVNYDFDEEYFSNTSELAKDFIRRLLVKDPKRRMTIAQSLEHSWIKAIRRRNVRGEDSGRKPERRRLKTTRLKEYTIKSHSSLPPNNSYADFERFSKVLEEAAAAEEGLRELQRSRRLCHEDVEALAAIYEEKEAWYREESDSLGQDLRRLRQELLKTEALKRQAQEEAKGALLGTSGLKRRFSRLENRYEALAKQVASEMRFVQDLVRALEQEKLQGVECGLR
T1 sequence (Q9NSY1 38-345): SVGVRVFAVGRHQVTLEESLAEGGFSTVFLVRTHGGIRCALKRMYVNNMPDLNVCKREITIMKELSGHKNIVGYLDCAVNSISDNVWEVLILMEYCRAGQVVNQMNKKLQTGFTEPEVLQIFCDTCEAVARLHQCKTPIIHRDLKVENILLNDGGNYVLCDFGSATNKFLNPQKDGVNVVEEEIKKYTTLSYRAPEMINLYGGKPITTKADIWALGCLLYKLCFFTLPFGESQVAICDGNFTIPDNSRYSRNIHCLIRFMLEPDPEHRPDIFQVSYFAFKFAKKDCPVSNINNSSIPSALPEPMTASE
T12 sequence (P27448 56-307): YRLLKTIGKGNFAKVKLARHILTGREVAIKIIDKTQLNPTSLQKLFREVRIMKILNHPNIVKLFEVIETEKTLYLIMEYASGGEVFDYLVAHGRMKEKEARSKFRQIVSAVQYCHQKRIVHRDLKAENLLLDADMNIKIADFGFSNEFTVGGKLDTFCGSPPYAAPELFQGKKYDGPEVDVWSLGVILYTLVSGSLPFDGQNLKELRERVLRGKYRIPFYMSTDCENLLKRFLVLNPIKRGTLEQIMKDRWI

Regarding `O=C(NCc1ccccc1C(F)(F)F)Nc1ccc2cc1OCCOCCNc1ccn3ncc-2c3n1` [compound 27], the ΔTm at 10 µM on BMP2KA is 7.2 °C; on STK4 (STK4A), 3.8 °C; at FGFR2A it was 2.7 °C; at DYRK1AA, 1 °C; on DAPK3 (DAPK3A), 1.2 °C; on FESA, 0.7 °C. In addition, the ΔTm at 10 µM at MAP3K5A turned out to be 1.4 °C; at MARK4A, 2.7 °C; on PIM1 (PIM1A), 1.1 °C; on DCAMKL1A, 2.3 °C; at EPHA2 (EPHA2A), 0.2 °C; on MARK3A, 1.4 °C. Besides, the ΔTm at 10 µM on CAMK2DA was 2.5 °C; at SRPK1A, -0.1 °C; on MAPK1A, 0.9 °C; at CDKL1A, 0.4 °C; on MAPK10A, 0.7 °C; on VRK1A it was 0.4 °C. Further, the values for the shift in melting temperature (ΔTm) at 10 µM on MAPK14A and at SLK [1] were 2.6 °C and 4.2 °C, respectively. Moreover, the “ΔTm RPS6KA1A” value in the assay with RPS6KA1A was 0,2 °C. For the same molecule, the “ΔTm CDC42BPAA” value in the assay with CDC42BPAA is 1,0 °C. Further, the IC50 at STK10 worked out at 2.36 ± 0.6 µM. In addition, the EC50 at SLK [2] is > 50 µM.
As for `O=C(NCc1ccc(C(F)(F)F)cc1)Nc1ccc2cc1OCCOCCNc1ccn3ncc-2c3n1` [compound 28], the ΔTm at 10 µM on BMP2KA amounted to 7.7 °C; on STK4 (STK4A), 4.3 °C; on FGFR2A, 2.3 °C; at DYRK1AA, 1.6 °C; on DAPK3 (DAPK3A), 1.2 °C; at FESA it was 1 °C. In addition, the ΔTm at 10 µM on MAP3K5A was determined as 2.1 °C; at MARK4A, 2.7 °C; on PIM1 (PIM1A), 1 °C; on DCAMKL1A, 2.7 °C; on EPHA2 (EPHA2A) it was 0.1 °C; at MARK3A it was 1.4 °C. In addition, the ΔTm at 10 µM on CAMK2DA was 2.7 °C; at SRPK1A it was 0 °C; at MAPK1A it was 0.9 °C; on CDKL1A it was 0.6 °C; at MAPK10A, 1.1 °C; at VRK1A, 0.6 °C. Also, the shift in melting temperature (ΔTm) at 10 µM at MAPK14A and at SLK [1] was 3.1 °C each time. Besides, the “ΔTm RPS6KA1A” value in the assay on RPS6KA1A is 0,2 °C. For the same molecule, the “ΔTm CDC42BPAA” value in the assay with CDC42BPAA was 0,9 °C. At STK10, this molecule registered an IC50 of 5 ± 0.61 µM. The EC50 on SLK [2] is > 50 µM.

By ΔTm is commonly meant the shift of the melting midpoint relative to a reference. For orientation: IC50 means the concentration at which inhibition is half-maximal. High values mean lower potency, low ones higher potency. The term EC50 denotes the concentration that produces a half-maximal response.

(Values after PMC12621043, “Un-LOK-ing a New Approach for Conformational Selective Targeting of STK10 (LOK)” (ACS Medicinal Chemistry Letters, 2025).)
